{"source": "patent US5736394A", "about": "“Cellular uptake of modified peptides” (Boston Biomedical Research Institute, priority 1996, dated 1998)", "key": {"HL60 cells [1]": {"tested_on": "HL60 cells", "experiment": "Inhibition of HL60 cell proliferation ([3H]TdR incorporation at 24 h) after photolysis of intracellular Bz-peptide at 365 nm", "type": "cell-based, human", "conditions": "for cytostatic response / inhibition of DNA synthesis: irradiation immediately after plating, FIG. 2A", "description": "Experiments were designed to determine whether, after admission of the target-specific Bz-peptide molecules into proliferating cells, their photolysis in situ would induce a cytostatic response. Such a response would implicate the irreversible inhibition of ras-prenylating enzymes. […] It is important to note that, regardless of treatment, Trypan blue-assessed viability remained above 90% under the conditions employed for all experiments shown in FIG. 2A,B.\nTwo fundamental variations were performed. For FIG. 2A, cells were incubated in serum-free medium in the presence of a Bz-peptide, mevinolin, or, as control, with the DMSO delivery vehicle alone, for 15 min at room temp., after which fetal bovine serum was added to 10% (v/v) followed by plating in triplicate at 0.5 mL/well. These plates were immediately irradiated at 365 nm for 15 min to excite the intracellular Bz photophore, then placed in the incubator at 37° C. for 24 h. For FIG. 2B, the same procedure was followed except that, after serum replenishment and plating, cells were first incubated at 37° C. for 1 h, then removed from the incubator, irradiated for 15 min, and returned to incubation for 24 h. The 1 h incubation prior to irradiation was performed to assess, indirectly, the potential for intracellular destruction (or other means of depletion) of the Bz-peptides. At 24 h after serum replenishment, all cells were pulse-labeled with [^3 H]TdR to record the effect of intracellular Bz-peptide photolysis (as well as of mevinolin treatment, the effects of which have been well documented) on DNA synthesis and, thereby, on cell proliferation."}, "HL60 cells [2]": {"tested_on": "HL60 cells", "experiment": "HL60 cell proliferation ([3H]TdR incorporation into DNA) after 18 h incubation, plus or minus irradiation", "type": "cell-based, human", "procedure": "A set of experiments were designed to assess the effects of Bz-peptides on ras-mediated signaling of cell proliferation, under conditions where incubations of cells, post peptide addition, were shorter (18 h) than that found optimal for their population doubling (~24 h). Experiments were intended to reveal early differences in the relative stability of the Bz-peptides, as judged by their effects on inhibition of cell proliferation, plus or minus irradiation.\nHL60 cells were exposed to Bz-ACVIM SEQ ID NO: 4 (FPTase-specific), Bz-ACVIL SEQ ID NO: 5 (GGPTase-I-specific), the benzophenone photophore (BBA), mevinolin (proliferation inhibition control), or the DMSO vehicle alone, plus or minus irradiation. After incubation for 18 h at 37° C., irradiated and non-irradiated cultures were assayed for [^3 H]TdR incorporation into DNA (a measure of proliferation)."}, "HL-60 cells": {"tested_on": "HL-60 cells", "experiment": "Cellular uptake of [3H]Bz-peptides / [3H]BBA by HL60 cells (silicone oil centrifugation, cell pellets counted)", "procedure": "Initial experiments were designed to determine whether the Bz-modified peptide could cross cellular membranes. The methods employed for these studies are given briefly. First, 2×10^6 HL-60 cells/mL were incubated in serum free medium at 37° C. together with either [^3 H]-benzoylbenzoic acid ([^3 H]BBA) or the [^3 H]Bz-peptideover a 45 min time course. Aliquots (0.5 mL) of the cell suspension were removed at the times shown and separated from the aqueous medium by centrifugation through a silicone oil barrier. The cell pellets in the oil layer were counted.\nThe volume of an average HL60 cell can be estimated as 4.2×10^-6 μL. Thus, the pellet volume occupied by a […] suspension of 10^6 cells is […]."}, "[3]": {"conditions": "10 μM, 1 h delay at 37° C. before photolysis, 24 h, FIG. 2B"}}, "note": "Where no end group is shown, it is not given here. The star is where a group is joined. Benzoyl(4-benzoyl) = O=C(c1ccccc1)c1ccc(C(=O)*)cc1", "data": [{"compound": "mevinolin [reference compound]", "values": [{"measurement": "growth inhibition", "setting": "HL60 cells [1]; 10 μM, FIGS. 2A & 2B, whether irradiation was delayed for 1 h or not", "value": "apparent"}, {"measurement": "relative extent of inhibition of cell proliferation", "setting": "HL60 cells [2]; whether or not cells were irradiated, 2nd bar both panels", "value": "~ 50%"}]}, {"compound": "APRTPGGRR", "values": [{"measurement": "intracellular accumulation", "setting": "HL-60 cells; 48 μM, HL60 cells, lowest trace in FIG. 1B", "value": "no evidence for intracellular accumulation"}]}, {"compound": "Bz-ACVIL: Bz-derivatized pentapeptide ACVIL; GGPTase-I-specific photoaffinity inhibitor ({Benzoyl(4-benzoyl)}-ACVIL)", "values": [{"measurement": "influx and equilibration into cells", "setting": "HL-60 cells", "value": "behaved similarly"}, {"measurement": "inhibitory effect", "setting": "HL60 cells [1]; [3]", "value": "ineffective"}, {"measurement": "cytostatic response", "setting": "HL60 cells [1]; 10 μM, 24 h", "value": "did not do so"}, {"measurement": "loss of the inhibitory capacity manifest in FIG. 2A", "setting": "HL60 cells [1]; 100 μM, 1 h delay before photolysis, FIG. 2B relative to FIG. 2A", "value": "about 60%"}, {"measurement": "cytostatic response", "setting": "HL60 cells [1]; 100 μM, 24 h", "value": "clear cytostatic response"}]}, {"compound": "Bz-ACVIM: Bz-derivatized pentapeptide; benzophenone moiety amide-coupled to the N-terminus of ACVIM; FPTase-specific photoaffinity inhibitor ({Benzoyl(4-benzoyl)}-ACVIM)", "values": [{"measurement": "influx and equilibration into cells", "setting": "HL-60 cells", "value": "extremely rapid"}, {"measurement": "time to reach maximum levels of influx and equilibration", "setting": "HL-60 cells", "value": "≤ 15", "unit": "min"}, {"measurement": "inhibitory effect", "setting": "HL60 cells [1]; [3]", "value": "much lower inhibitory effect"}, {"measurement": "inhibition of DNA synthesis", "setting": "HL60 cells [1]; 10 μM, 24 h", "value": "75-80%"}, {"measurement": "cytostatic effect", "setting": "HL60 cells [1]; 100 μM, 1 h delay at 37° C. before photolysis, 24 h, FIG. 2B", "value": "remained at least as powerful as in FIG. 2A"}, {"measurement": "inhibition of DNA synthesis", "setting": "HL60 cells [1]; 100 μM, 24 h", "value": "75-80%"}]}, {"compound": "O=C(O)c1ccc(C(=O)c2ccccc2)cc1", "note": "[BBA, 4-benzoylbenzoic acid]", "values": [{"measurement": "effect on the cell's capacity for proliferation", "setting": "HL60 cells [2]; whether cells were irradiated or not, 6th bar both panels", "value": "no effect"}]}]}
